Results on eight compounds are retold here after ChEMBL document CHEMBL1201862, “PubChem BioAssay data set” (2004).

Among the test systems are HCT-116; HCT-15; IGROV-1; K562; LXFL 529; M14; NCI-H226; NCI-H460; NCI-H522; OVCAR-3; OVCAR-5; RPMI-8226; SF-295; SK-MEL-28; SNB-75; UACC-257; UO-31; MDA-N; MCF7; MDA-MB-435.
Holding throughout (experiment): inhibition of tumour cell growth, NCI panel, 48 h

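96-well plates; 48 h exposure; 5 concentrations. Endpoints by linear interpolation between flanking doses. Not reached: highest tested concentration assigned. GI50: concentration for 50% inhibition of growth.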 Active and inactive are the calls of the source. Rule as the data show it: active = GI50 up to about 1.1 µM and inactive = higher.

For the compound `COc1cc2oc(-c3ccc(O)cc3)cc(=O)c2c(O)c1C1OC(CO)C(O)C(O)C1O` (configuration not stated), the GI50 with HCT-116 was > 100 µM (inactive); in the test with HCT-15 it was over 100 µM; in the test with IGROV-1, > 100 µM (inactive); with K562, > 100 µM (inactive); with LXFL 529 it was > 100 µM (inactive); in the test with M14 it was > 100 µM (inactive). The GI50 with NCI-H226, with NCI-H460, with NCI-H522, in the test with OVCAR-3, in the test with OVCAR-5 and with RPMI-8226 was > 100 µM (inactive) in each case. The GI50 in the test with SF-295, in the test with SK-MEL-28, with SNB-75, with UACC-257 and in the test with UO-31 was > 100 µM (inactive) in each case.
In the case of `COc1ccc(Nc2nc3ccccc3nc2-c2cccs2)cc1`, the GI50 with HCT-116 is > 100 µM (inactive); in the test on HCT-15 it was over 100 µM; with IGROV-1, > 100 µM (inactive); with K562, > 100 µM (inactive); in the test on LXFL 529, 54.5 µM (inactive); with M14, 47.1 µM (inactive). Also, the GI50 was > 100 µM (inactive) in the test on NCI-H226; 79.4 µM (inactive) with NCI-H460; 59.4 µM (inactive) in the test on NCI-H522; > 100 µM (inactive) in the test on OVCAR-3; > 100 µM (inactive) in the test on OVCAR-5; 70.6 µM (inactive) in the test on SF-295. In addition, the GI50 was > 100 µM (inactive) with SK-MEL-28, 28.6 µM (inactive) in the test with SNB-75, > 100 µM (inactive) in the test with UACC-257 and > 100 µM (inactive) in the test with UO-31.
In the case of `BrCC[N+]12CCCN1CCC2`, the GI50 is 5.66 µM (inactive) in the test on HCT-116; 12.3 µM in the test on HCT-15; 22 µM (inactive) in the test with IGROV-1; 2.9 µM (inactive) with K562; 2.88 µM (inactive) with LXFL 529; 11 µM (inactive) in the test on M14. The GI50 was 16.1 µM (inactive) with MDA-N; 33.2 µM (inactive) in the test with NCI-H226; 22.3 µM (inactive) in the test with NCI-H460; 0.664 µM (active) in the test on NCI-H522; 13.9 µM (inactive) in the test on OVCAR-3; 21.5 µM (inactive) in the test with OVCAR-5. Also, the GI50 in the test with RPMI-8226 was 1.53 µM (inactive); with SF-295 it was > 72.9 µM (inactive); in the test with SK-MEL-28, 10.7 µM (inactive); with SNB-75 it was 16.7 µM (inactive); in the test on UACC-257, 18.7 µM (inactive); with UO-31, 13.8 µM (inactive).
As for `O=C(/C(=C/c1ccc(O)cc1)c1ccccc1)c1ccccc1`, the GI50 in the test on HCT-116 was 16.7 µM (inactive); in the test on HCT-15, 18 µM; with IGROV-1 it was 18.7 µM (inactive); in the test with K562, 17.8 µM (inactive); in the test with LXFL 529, 16.4 µM (inactive); in the test with M14, 17.1 µM (inactive). For the same compound, the GI50 in the test with NCI-H226 was 16.7 µM (inactive); in the test on NCI-H460, 18.7 µM (inactive); in the test with NCI-H522, 15.2 µM (inactive); in the test on OVCAR-5 it was 17 µM (inactive); in the test on RPMI-8226, 17.3 µM (inactive); in the test on SF-295, 16.1 µM (inactive). The GI50 with SK-MEL-28 was 17.9 µM (inactive); in the test with SNB-75, 16.7 µM (inactive); in the test on UACC-257, 18 µM (inactive); in the test with UO-31 it was 15.4 µM (inactive).
As for `N#CCC(=O)N/N=C1/C(=O)N(c2ccc(Cl)cc2)C(=O)C(=O)C1c1nc2ccccc2s1` (configuration not stated), the GI50 in the test with HCT-116 is 53.7 µM (inactive); in the test with HCT-15, over 100 µM; in the test with IGROV-1, > 100 µM (inactive); in the test on LXFL 529 it was > 100 µM (inactive); in the test on M14, > 100 µM (inactive); in the test on NCI-H226, 26.3 µM (inactive). For the same compound, the GI50 in the test with NCI-H522 was 46.3 µM (inactive); in the test on OVCAR-3, > 100 µM (inactive); with OVCAR-5 it was > 100 µM (inactive); in the test with SF-295, > 100 µM (inactive); in the test on SK-MEL-28 it was > 100 µM (inactive); in the test with SNB-75 it was 20.8 µM (inactive). For the same compound, the GI50 in the test on UACC-257 is 65.6 µM (inactive); in the test on UO-31, 28.5 µM (inactive).
As to `O=C(O)CCC(=O)N1C/C(=C\c2ccccc2)C(=O)/C(=C/c2ccccc2)C1`, the GI50 with HCT-116 is 1.75 µM (inactive); in the test with HCT-15 it was 2.06 µM; with IGROV-1, 3.45 µM (inactive); in the test on K562, 1.19 µM (inactive); in the test with LXFL 529 it was 2.67 µM (inactive); in the test with M14, 2.32 µM (inactive). Also, the GI50 in the test on NCI-H226 was 18 µM (inactive); in the test on NCI-H460, 8.22 µM (inactive); with NCI-H522, 1.07 µM (active); in the test on OVCAR-3, 2.41 µM (inactive); in the test with OVCAR-5, 15 µM (inactive); in the test on RPMI-8226, 2.42 µM (inactive). For the same compound, the GI50 with SF-295 was 2.44 µM (inactive); with SK-MEL-28, 1.97 µM (inactive); with SNB-75 it was 6.82 µM (inactive); in the test on UACC-257, 2.29 µM (inactive); in the test on UO-31, 18.6 µM (inactive).
For the compound `N/C(S)=N/N=C/c1ccc(O)cn1`, the GI50 was 10.9 µM (inactive) in the test on HCT-116; 9.08 µM with HCT-15; 21.3 µM (inactive) with IGROV-1; 4.99 µM (inactive) with K562; 19.7 µM (inactive) in the test on LXFL 529; 5.11 µM (inactive) with M14. In addition, the GI50 in the test on MCF7 was 3.18 µM (inactive); in the test on MDA-MB-435, 10.5 µM (inactive); in the test on MDA-N, 8.45 µM (inactive); in the test on NCI-H226, 24.2 µM (inactive); in the test on NCI-H460 it was 18.5 µM (inactive); in the test with OVCAR-3 it was 3.52 µM (inactive). The GI50 is 45 µM (inactive) in the test with OVCAR-5; 10.7 µM (inactive) with RPMI-8226; 20.4 µM (inactive) in the test on SF-295; 30.1 µM (inactive) in the test on SK-MEL-28; 9.06 µM (inactive) with SNB-75; 22.4 µM (inactive) with UACC-257. For the same compound, in the test with UO-31, the GI50 was 10.6 µM (inactive).
For `CC1=C(C(=O)Nc2ccccc2)C(c2ccc3c(c2)OCO3)C(C(=O)Nc2ccccc2)=C(C)N1`, the GI50 in the test with HCT-15 was 33 µM; in the test on IGROV-1, 60.7 µM (inactive); in the test with K562, 17.5 µM (inactive); with LXFL 529 it was 20 µM (inactive); in the test with M14, 33.7 µM (inactive); in the test with NCI-H226 it was 39.6 µM (inactive). The GI50 is 43.9 µM (inactive) in the test on NCI-H460; 17 µM (inactive) in the test with NCI-H522; 22.7 µM (inactive) in the test on OVCAR-3; > 10 µM (inactive) in the test on OVCAR-5; 23.1 µM (inactive) with RPMI-8226; 35.3 µM (inactive) with SF-295. Also, the GI50 in the test on SK-MEL-28 was 31.6 µM (inactive); in the test on UACC-257, 40.9 µM (inactive); in the test with UO-31, 29.5 µM (inactive).
